In patent US11426403B2 (ST IP Holding AG, priority 2016, dated 2022):
Where two headings read alike, the source gives them in different places.

How the values were obtained:
[1] = system: reactive oxygen species within HGEPp cells; conditions: 0.3 mM H2O2 for 4 h
Source text: 2. measure the effect of recrystallized oltipraz and formulated oltipraz on hydroxyl, peroxyl and other reactive oxygen species within HGEPp cells, using Cell Biolabs' OxiSelect™ Intracellular ROS Assay Kit. This assay employs the cell-permeable fluorogenic probe 2′,7′-dichlorodihydrofluorescin diacetate (DCFH-DA) which diffuses into cells and is deacetylated by cellular esterases to a nonfluorescent DCFH which is then rapidly oxidized to highly fluorescent 2′,7′-dichlorodihydrofluorescein (DCF) by ROS.
Pooled primary HGEPps were propagated in CnT-Prime epithelial culture medium provided by CellnTec on 100 mm petri dishes coated with 30 mg/ml Type I rat tail collagen (BD Biosciences) diluted in Dulbecco's phosphate-buffered saline (DPBS). […] The cells were harvested when they reached 70-90% confluency as observed by light microscopy. For routine cultivation, the medium was changed every 3 days. […]
Prepared and mixed all reagents thoroughly before use. […] Once the HGEPp cells were cultured and ready on a microplate, the media was removed from all the wells and discarded. […] Fluorescence was read on a Fluorescence Plate Reader after 1 hour. […] Transferred 150 μL of the mixture to a fresh 24-well plate for fluorescence measurements at 530 nm. […]
Intracellular ROS was measured using a Spectramax M3 microplate reader.

[2] = system: primary human gingival epithelial cells (HGEPp); test: cells; conditions: Epithelial cell, 4 h, read-out: IC50 of H2O2 in HGEPp cells
Experimental: (§1) Pooled primary HGEPps were propagated in CnT-Prime epithelial culture medium provided by CellnTec on 100 mm petri dishes coated with 30 mg/ml Type I rat tail collagen (BD Biosciences) diluted in Dulbecco's phosphate-buffered saline (DPBS). […] The cells were harvested when they reached 70-90% confluency as observed by light microscopy. For routine cultivation, the medium was changed every 3 days. For both the cell viability and ROS assays, the cells from passages 3-7 were seeded at 5×10 3, 2.5×10 4, 5×10^4 cells/cm 2 density to grow cell monolayers in 24-well flat-bottomed tissue culture plates and acclimated overnight at 37° C. […]
(§2) Once the HGEPp cells were cultured and ready on the microplate, the media was removed from all the wells and discarded. […] Removed the plate cover and measured the absorbance of the wells, including the blanks at 570 nm. • 8. Determined the average values from triplicate readings after subtracting the average value for the blanks.
(§3) HGEPp cells were exposed to different concentrations of H2O2 for 4 h to examine H2O2-induced oxidative stress. The cells were exposed to 0-0.6 mM H2O2 for 4 h and cell viability was evaluated using the TACS MTT Cell Proliferation Assay Kit. The percentage of cell survival was determined using the ratio of the optical density (OD) of the test sample to the OD of the control×100%. […]

[3] = system: oral mucositis induced by acute radiation, left buccal cheek pouch
Experimental: Twenty-four (24) male Syrian Golden Hamsters were used in the study. Mucositis was induced by giving an acute radiation dose of 40 Gy directed to the left buccal cheek pouch on Day 0. Mucositis was evaluated clinically starting on Day 6, and continuing on alternate days until Day 28.
Mucositis was scored visually by comparison to a validated photographic scale, ranging from 0 for normal, to 5 for severe ulceration (clinical scoring). In descriptive terms, this scale is defined as described in Table 7 below: […]
A mucositis score of 3 or greater indicates ulcerative mucositis, a clinically significant threshold.
Statistical significance of observed differences was calculated using chi-squared analysis.
An analysis of the severity of mucositis was performed using the Mann-Whitney rank sum analysis to compare the visual mucositis scores for Groups 2 and 3 to the vehicle control group (Group 1) on each day of the analysis. In this analysis, 2 consecutive days of significant reduction in the mucositis score are generally required before it is regarded as clinically meaningful.
The significance of group differences observed in daily mucositis scores was determined using the Mann-Whitney rank sum test. This nonparametric statistic is appropriate for the visual mucositis scoring scale. The p-values for each calculation are shown. “x” denotes significant difference in mucositis scores. “y” denotes increase in comparison to vehicle Group […], “z” denotes decrease.
“y” denotes an increase in comparison to vehicle Group, “z” denotes decrease (improvement).

[4] = system: primary human gingival epithelial cells (HGEPp); conditions: pretreated 24 h at 50 to 800 ug/ml, then 0.3 mM H2O2 for 4 h; P<0.05 versus PC
Experimental: as §1, §2, §3

[5] = hamster, Days -3 to 28, topical 1 mg/dose BID

IC50 [2]	SMILES	ROS levels compared to normal control cells (100%) [1]	Percent of Animals with Ulceration (Score ≥ 3) ([3]; Day 6)	Percent of Animals with Ulceration (Score ≥ 3) ([3]; Day 8)	Percent of Animals with Ulceration (Score ≥ 3) ([3]; Day 10)	Percent of Animals with Ulceration (Score ≥ 3) ([3]; Day 12)	Percent of Animals with Ulceration (Score ≥ 3) ([3]; Day 14)	Percent of Animals with Ulceration (Score ≥ 3) ([3]; Day 16)	Percent of Animals with Ulceration (Score ≥ 3) ([3]; Day 18)	Percent of Animals with Ulceration (Score ≥ 3) ([3]; Day 20)	Percent of Animals with Ulceration (Score ≥ 3) ([3]; Day 22)	Percent of Animals with Ulceration (Score ≥ 3) ([3]; Day 24)	Percent of Animals with Ulceration (Score ≥ 3) ([3]; Day 26)	Percent of Animals with Ulceration (Score ≥ 3) ([3]; Day 28)	effect on H2O2-induced decrease in HGEPp survival (MTT) [4]	mean daily percent body weight change (rate of weight gain) [5]
300 µM	OO [Sample H2O2, hydrogen peroxide]	128%	–	–	–	–	–	–	–	–	–	–	–	–	–	–
–	Cc1c(-c2cnccn2)ssc1=S [Neat oltipraz, 4-methyl-5-(pyrazin-2-yl)-3H-1,2-dithiole-3-thione]	–	0.0%	0.0%	0.0 z Percent	50.0 y Percent	100.0%	100.0%	100.0%	100.0%	100.0%	50.0 z Percent	25.0 z Percent	25.0 z Percent	promoted cell proliferation and reduced H2O2-induced decrease in HGEPp survival	gained weight at a slower rate than those administered placebo
